The record followed here is patent publication US12643882B2, “Inhibitors of human respiratory syncytial virus and metapneumovirus” (priority 2022, dated 2026).

One assay concerns RSV-A2-GFP virus. The assay is described as follows: microbe, parasite or virus in culture. The format is cell-based, Human Respiratory Syncytial Virus. The procedure, abridged:
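IC50 (GFP-expressing cell counts by Acumen imaging) and CC50 (same-well CellTiter-Glo) were obtained by 4-parameter logistic fitting. Compounds were tested in 10-point 3-fold series for 96 h at 37° C, 5% CO2. Thawed Calu-1 ARF cells were infected at MOI 1.2 with GFP-reporter RSV-A2 in 2% FBS DMEM.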

The subject of a further assay is hMPV-GFP virus. The experiment in a line: microbe, parasite or virus in culture. In kind it is cell-based, human metapneumovirus. The procedure, abridged: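 Antiviral IC50 was derived from imaging counts of GFP-expressing cells, with CC50 from a same-well CellTiter-Glo read, both by 4-parameter logistic fitting. VERO cells plus hMPV-GFP (MOI 1.25) were exposed 48 h at 37 °C to 10-point 3-fold compound dilutions (typical final 40,300–2 nM).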

[1] abbreviates: human respiratory syncytial virus, Calu-1, 96 h, read-out: RSV EC50, Calu-1 cells infected with RSV-A2-GFP, 96 hrs, GFP-expressing cells counted.
Setting [2] is: human metapneumovirus, Vero, 48 h, read-out: hMPV EC50, VERO cells infected with hMPV-GFP, 48 hrs, GFP-expressing cells counted.
Setting [3] is: Calu-1 cells infected with RSV-A2-GFP, 96 hrs, GFP-expressing cells counted, read-out: RSV EC50.
Setting [4] is: VERO cells infected with hMPV-GFP, 48 hrs, GFP-expressing cells counted, read-out: hMPV EC50.

Where two headings read alike, the source gives them in different places.

Consider `Cn1nc(-c2ncccn2)cc1C(=O)N1C[C@@H]2[C@H](C1)[C@H]2Oc1cc(C(C)(C)N)cc(-c2ccc(F)c(F)c2)n1` [Example 55, ((1R,5S,6s)-6-((4-(2-aminopropan-2-yl)-6-(3,4-difluorophenyl)pyridin-2-yl)oxy)-3-azabicyclo[3.1.0]hexan-3-yl)(1-methyl-3-(pyrimidin-2-yl)-1H-pyrazol-5-yl)methanone], for which the EC50 in the assay with RSV-A2-GFP virus (setting [1]) is below 10 nM; in the assay with hMPV-GFP virus (setting [2]) it was above 100 nM.

`Cn1nc(-c2ncccn2)cc1C(=O)N1C[C@@H]2[C@H](C1)[C@H]2Oc1cc(C(C)(C)N)cc(-c2ccc(F)c(Cl)c2)n1` [Example 56, ((1R,5S,6s)-6-((4-(2-aminopropan-2-yl)-6-(3-chloro-4-fluorophenyl)pyridin-2-yl)oxy)-3-azabicyclo[3.1.0]hexan-3-yl)(1-methyl-3-(pyrimidin-2-yl)-1H-pyrazol-5-yl)methanone]: the EC50 is below 10 nM with RSV-A2-GFP virus (setting [3]) and above 100 nM in the assay with hMPV-GFP virus (setting [4]).

Turning to `Cn1nc(-c2ncccn2)cc1C(=O)N1C[C@@H]2[C@H](C1)[C@H]2Oc1cc(C(C)(C)N)cc(-c2ccc(F)cc2Cl)n1` [Example 57, ((1R,5S,6s)-6-((4-(2-aminopropan-2-yl)-6-(2-chloro-4-fluorophenyl)pyridin-2-yl)oxy)-3-azabicyclo[3.1.0]hexan-3-yl)(1-methyl-3-(pyrimidin-2-yl)-1H-pyrazol-5-yl)methanone], the figures for the EC50 with RSV-A2-GFP virus (setting [3]) and in the assay on hMPV-GFP virus (setting [4]) were below 10 nM and above 100 nM, respectively.

Take `Cn1nc(-c2ncccn2)cc1C(=O)N1C[C@@H]2[C@H](C1)[C@H]2Oc1cc(C(C)(C)N)cc(-c2ccc(Cl)cc2)n1` [Example 58, ((1R,5S,6s)-6-((4-(2-aminopropan-2-yl)-6-(4-chlorophenyl)pyridin-2-yl)oxy)-3-azabicyclo[3.1.0]hexan-3-yl)(1-methyl-3-(pyrimidin-2-yl)-1H-pyrazol-5-yl)methanone]: the figures for the concentration for a half-maximal effect (EC50) in the assay on RSV-A2-GFP virus (setting [3]) and with hMPV-GFP virus (setting [4]) were below 10 nM and 10 to 100 nM, respectively.

For `Cn1nc(-c2ncccn2)cc1C(=O)N1C[C@@H]2[C@H](C1)[C@H]2Oc1cc(C(C)(C)N)cc(-c2ccc(C(F)(F)F)cc2)n1` [Example 59, ((1R,5S,6s)-6-((4-(2-aminopropan-2-yl)-6-(4-(trifluoromethyl)phenyl)pyridin-2-yl)oxy)-3-azabicyclo[3.1.0]hexan-3-yl)(1-methyl-3-(pyrimidin-2-yl)-1H-pyrazol-5-yl)methanone], the concentration for a half-maximal effect (EC50) in the assay on RSV-A2-GFP virus (setting [3]) was below 10 nM; with hMPV-GFP virus (setting [4]), 10 to 100 nM.

As for `Cn1nc(-c2ncccn2)cc1C(=O)N1C[C@@H]2[C@H](C1)[C@H]2Oc1cc(C(C)(C)N)cc(-n2ccc3c(F)cccc32)n1` [Example 60, ((1R,5S,6s)-6-((4-(2-aminopropan-2-yl)-6-(4-fluoro-1H-indol-1-yl)pyridin-2-yl)oxy)-3-azabicyclo[3.1.0]hexan-3-yl)(1-methyl-3-(pyrimidin-2-yl)-1H-pyrazol-5-yl)methanone], the EC50 in the assay with RSV-A2-GFP virus (setting [1]) was below 10 nM; in the assay with hMPV-GFP virus (setting [2]), 10 to 100 nM.

Regarding `Cc1nn(-c2ncccn2)cc1C(=O)N1C[C@@H]2[C@H](C1)[C@H]2Oc1cc(C(C)(C)N)cc(-c2ccc(F)cc2)n1` [Example 61, ((1R,5S,6s)-6-((4-(2-aminopropan-2-yl)-6-(4-fluorophenyl)pyridin-2-yl)oxy)-3-azabicyclo[3.1.0]hexan-3-yl)(3-methyl-1-(pyrimidin-2-yl)-1H-pyrazol-4-yl)methanone], the EC50 in the assay with RSV-A2-GFP virus (setting [1]) was below 10 nM; with hMPV-GFP virus (setting [2]), above 100 nM.

Regarding `COc1nn(-c2ncccn2)cc1C(=O)N1C[C@@H]2[C@H](C1)[C@H]2Oc1cc(C(C)(C)N)cc(-c2ccc(F)cc2)n1` [Example 62, ((1R,5S,6s)-6-((4-(2-aminopropan-2-yl)-6-(4-fluorophenyl)pyridin-2-yl)oxy)-3-azabicyclo[3.1.0]hexan-3-yl)(3-methoxy-1-(pyrimidin-2-yl)-1H-pyrazol-4-yl)methanone], the EC50 is below 10 nM in the assay on RSV-A2-GFP virus (setting [1]) and above 100 nM in the assay with hMPV-GFP virus (setting [2]).

Take `CC(C)(N)c1cc(O[C@H]2[C@@H]3CN(C(=O)c4cnn(-c5ncccn5)c4)C[C@@H]32)nc(-c2ccc(F)cc2)c1` [Example 63, ((1R,5S,6s)-6-((4-(2-aminopropan-2-yl)-6-(4-fluorophenyl)pyridin-2-yl)oxy)-3-azabicyclo[3.1.0]hexan-3-yl)(1-(pyrimidin-2-yl)-1H-pyrazol-4-yl)methanone]: the values for the EC50 in the assay with RSV-A2-GFP virus (setting [3]) and with hMPV-GFP virus (setting [4]) were below 10 nM and above 100 nM, respectively.

In the case of `CCc1nn(-c2ncccn2)cc1C(=O)N1C[C@@H]2[C@H](C1)[C@H]2Oc1cc(C(C)(C)N)cc(-c2ccc(F)cc2)n1` [Example 64, ((1R,5S,6s)-6-((4-(2-aminopropan-2-yl)-6-(4-fluorophenyl)pyridin-2-yl)oxy)-3-azabicyclo[3.1.0]hexan-3-yl)(3-ethyl-1-(pyrimidin-2-yl)-1H-pyrazol-4-yl)methanone], the concentration giving a half-maximal response (EC50) was below 10 nM in the assay on RSV-A2-GFP virus (setting [3]) and above 100 nM in the assay on hMPV-GFP virus (setting [4]).

With `CC(C)(N)c1cc(O[C@H]2[C@@H]3CN(C(=O)c4cn(-c5ncccn5)nc4C4CC4)C[C@@H]32)nc(-c2ccc(F)cc2)c1` [Example 65, ((1R,5S,6s)-6-((4-(2-aminopropan-2-yl)-6-(4-fluorophenyl)pyridin-2-yl)oxy)-3-azabicyclo[3.1.0]hexan-3-yl)(3-cyclopropyl-1-(pyrimidin-2-yl)-1H-pyrazol-4-yl)methanone], the EC50 in the assay with RSV-A2-GFP virus (setting [3]) was below 10 nM; in the assay on hMPV-GFP virus (setting [4]), above 100 nM.

With `CC(C)(N)c1cc(O[C@H]2[C@@H]3CN(C(=O)c4cn(-c5ncccn5)nc4C(F)F)C[C@@H]32)nc(-c2ccc(F)cc2)c1` [Example 66, ((1R,5S,6s)-6-((4-(2-aminopropan-2-yl)-6-(4-fluorophenyl)pyridin-2-yl)oxy)-3-azabicyclo[3.1.0]hexan-3-yl)(3-(difluoromethyl)-1-(pyrimidin-2-yl)-1H-pyrazol-4-yl)methanone], the 50% effective concentration (EC50) in the assay on RSV-A2-GFP virus (setting [3]) was below 10 nM; in the assay on hMPV-GFP virus (setting [4]), above 100 nM.

`CC(C)(N)c1cc(O[C@H]2[C@@H]3CN(C(=O)c4cn(-c5ncccn5)nc4C(F)(F)F)C[C@@H]32)nc(-c2ccc(F)cc2)c1` [Example 67, ((1R,5S,6s)-6-((4-(2-aminopropan-2-yl)-6-(4-fluorophenyl)pyridin-2-yl)oxy)-3-azabicyclo[3.1.0]hexan-3-yl)(1-(pyrimidin-2-yl)-3-(trifluoromethyl)-1H-pyrazol-4-yl)methanone]: the EC50 was below 10 nM with RSV-A2-GFP virus (setting [3]) and above 100 nM in the assay with hMPV-GFP virus (setting [4]).

Take `CCOc1nn(-c2ncccn2)cc1C(=O)N1C[C@@H]2[C@H](C1)[C@H]2Oc1cc(C(C)(C)N)cc(-c2ccc(F)cc2)n1` [Example 68, ((1R,5S,6s)-6-((4-(2-aminopropan-2-yl)-6-(4-fluorophenyl)pyridin-2-yl)oxy)-3-azabicyclo[3.1.0]hexan-3-yl)(3-ethoxy-1-(pyrimidin-2-yl)-1H-pyrazol-4-yl)methanone]: the values for the 50% effective concentration (EC50) with RSV-A2-GFP virus (setting [3]) and in the assay on hMPV-GFP virus (setting [4]) were below 10 nM and above 100 nM, respectively.

Take `CC(C)(N)c1cc(O[C@H]2[C@@H]3CN(C(=O)c4cn(-c5ncccn5)nc4OC(F)F)C[C@@H]32)nc(-c2ccc(F)cc2)c1` [Example 69, ((1R,5S,6s)-6-((4-(2-aminopropan-2-yl)-6-(4-fluorophenyl)pyridin-2-yl)oxy)-3-azabicyclo[3.1.0]hexan-3-yl)(3-(difluoromethoxy)-1-(pyrimidin-2-yl)-1H-pyrazol-4-yl)methanone]: the concentration for a half-maximal effect (EC50) is below 10 nM with RSV-A2-GFP virus (setting [3]) and above 100 nM in the assay on hMPV-GFP virus (setting [4]).

Take `CC(C)(N)c1cc(O[C@H]2[C@@H]3CN(C(=O)c4cn(-c5ncccn5)nc4N)C[C@@H]32)nc(-c2ccc(F)cc2)c1` [Example 70, (3-amino-1-(pyrimidin-2-yl)-1H-pyrazol-4-yl)((1R,5S,6s)-6-((4-(2-aminopropan-2-yl)-6-(4-fluorophenyl)pyridin-2-yl)oxy)-3-azabicyclo[3.1.0]hexan-3-yl)methanone]: the results for the half-maximal effective concentration (EC50) with RSV-A2-GFP virus (setting [3]) and in the assay on hMPV-GFP virus (setting [4]) were below 10 nM and above 100 nM, respectively.

Take `Cc1nn(-c2ncc(F)cn2)cc1C(=O)N1C[C@@H]2[C@H](C1)[C@H]2Oc1cc(C(C)(C)N)cc(-c2ccc(F)cc2)n1` [Example 71, ((1R,5S,6s)-6-((4-(2-aminopropan-2-yl)-6-(4-fluorophenyl)pyridin-2-yl)oxy)-3-azabicyclo[3.1.0]hexan-3-yl)(1-(5-fluoropyrimidin-2-yl)-3-methyl-1H-pyrazol-4-yl)methanone]: the EC50 in the assay with RSV-A2-GFP virus (setting [3]) is below 10 nM; in the assay on hMPV-GFP virus (setting [4]), above 100 nM.

As to `Cc1ccnc(-n2cc(C(=O)N3C[C@@H]4[C@H](C3)[C@H]4Oc3cc(C(C)(C)N)cc(-c4ccc(F)cc4)n3)c(C)n2)n1` [Example 72, ((1R,5S,6s)-6-((4-(2-aminopropan-2-yl)-6-(4-fluorophenyl)pyridin-2-yl)oxy)-3-azabicyclo[3.1.0]hexan-3-yl)(3-methyl-1-(4-methylpyrimidin-2-yl)-1H-pyrazol-4-yl)methanone], the 50% effective concentration (EC50) in the assay on RSV-A2-GFP virus (setting [3]) was below 10 nM; with hMPV-GFP virus (setting [4]), above 100 nM.

`Cc1nn(-c2ncccn2)c(C)c1C(=O)N1C[C@@H]2[C@H](C1)[C@H]2Oc1cc(C(C)(C)N)cc(-c2ccc(F)cc2)n1` [Example 73, ((1R,5S,6s)-6-((4-(2-aminopropan-2-yl)-6-(4-fluorophenyl)pyridin-2-yl)oxy)-3-azabicyclo[3.1.0]hexan-3-yl)(3,5-dimethyl-1-(pyrimidin-2-yl)-1H-pyrazol-4-yl)methanone]: the half-maximal effective concentration (EC50) with RSV-A2-GFP virus (setting [3]) is below 10 nM; in the assay on hMPV-GFP virus (setting [4]), above 100 nM.
